Assay [1] relates to calcium-dependent chloride secretion. The experiment in a line: Short-circuit current in bronchial epithelial cells: UTP-activated, inh-A01-inhibited chloride secretion. Format: cell-based, human. To be noted: compound 10 μM, activated with UTP. The method, then:
FIG. 3. PP008 corrective activity on primary epithelial cells. (A) The representative plots and (B) the bar chart show the results obtained by treating bronchial epithelial cells from a patient homozygous for the mutation F508del with PP008 (10 μM) in the presence and absence of VX-809 (1 μM). As control, cells were treated for 24 h with vehicle alone (dimethylsufoxide, DMSO) at the same concentration (0.1%) used to add test compounds. […] (C) Results obtained on nasal epithelial cells of a homozygous F508del patient. *, p<0.05; ***, p<0.001.
The culture and functional study of human primary nasal and bronchial epithelial cells have been described in detail above (Scudieri P, et al. J Physiol. 2012, 590, 6141-6155). Briefly, nasal epithelial cells were taken after informed consent using the “brushing” technique. […] With this mode, the transepithelial potential difference is locked to zero and the resulting current, supplied by the Voltage Clamp is recorded by an AD/DA converter (PowerLab, ADInstruments).

The next assay deals with F508del-CFTR (Homo sapiens, UniProt P13569, DEL508-508). The experiment in a line: Transepithelial short-circuit current in primary nasal epithelial cells of F508del homozygous CF patient. Format: cell-based. The arrangement: endogenous in cells; host or cells: primary bronchial and nasal epithelial cells from CF patients homozygous for F508del. The conditions noted are these: FIG. 3C. The source says: The culture and functional study of human primary nasal and bronchial epithelial cells have been described in detail above (Scudieri P, et al. J Physiol. 2012, 590, 6141-6155). Briefly, nasal epithelial cells were taken after informed consent using the “brushing” technique. Bronchial cells were instead obtained by proteolytic digestion of bronchi isolated from the lungs of patients (suffering from CF or other pulmonary pathology (idiopathic pulmonary fibrosis, pulmonary hypertension, emphysema) subjected to transplant operations. The informed consent of the patients was obtained also in this case. After isolation, epithelial cells were cultured in a liquid medium of defined serum-free composition. This medium consists of a mixture of LHC9/RPMI 1640 (1:1) enriched with various hormones and growth factors (Scudieri P, et al. J Physiol. 2012, 590, 6141-6155). After 3-5 passages, necessary for the expansion of the initial number, the cells were seeded at high density on Snapwell porous supports (Corning, 3801). After 24 hours, the culture medium was replaced by a mixture consisting of DMEM and Ham's F12 (1:1) enriched with 2% foetal bovine serum and other supplements. […] With this mode, the transepithelial potential difference is locked to zero and the resulting current, supplied by the Voltage Clamp is recorded by an AD/DA converter (PowerLab, ADInstruments).
Chain of F508del-CFTR (P13569 with tags, fused parts or gaps DEL508-508): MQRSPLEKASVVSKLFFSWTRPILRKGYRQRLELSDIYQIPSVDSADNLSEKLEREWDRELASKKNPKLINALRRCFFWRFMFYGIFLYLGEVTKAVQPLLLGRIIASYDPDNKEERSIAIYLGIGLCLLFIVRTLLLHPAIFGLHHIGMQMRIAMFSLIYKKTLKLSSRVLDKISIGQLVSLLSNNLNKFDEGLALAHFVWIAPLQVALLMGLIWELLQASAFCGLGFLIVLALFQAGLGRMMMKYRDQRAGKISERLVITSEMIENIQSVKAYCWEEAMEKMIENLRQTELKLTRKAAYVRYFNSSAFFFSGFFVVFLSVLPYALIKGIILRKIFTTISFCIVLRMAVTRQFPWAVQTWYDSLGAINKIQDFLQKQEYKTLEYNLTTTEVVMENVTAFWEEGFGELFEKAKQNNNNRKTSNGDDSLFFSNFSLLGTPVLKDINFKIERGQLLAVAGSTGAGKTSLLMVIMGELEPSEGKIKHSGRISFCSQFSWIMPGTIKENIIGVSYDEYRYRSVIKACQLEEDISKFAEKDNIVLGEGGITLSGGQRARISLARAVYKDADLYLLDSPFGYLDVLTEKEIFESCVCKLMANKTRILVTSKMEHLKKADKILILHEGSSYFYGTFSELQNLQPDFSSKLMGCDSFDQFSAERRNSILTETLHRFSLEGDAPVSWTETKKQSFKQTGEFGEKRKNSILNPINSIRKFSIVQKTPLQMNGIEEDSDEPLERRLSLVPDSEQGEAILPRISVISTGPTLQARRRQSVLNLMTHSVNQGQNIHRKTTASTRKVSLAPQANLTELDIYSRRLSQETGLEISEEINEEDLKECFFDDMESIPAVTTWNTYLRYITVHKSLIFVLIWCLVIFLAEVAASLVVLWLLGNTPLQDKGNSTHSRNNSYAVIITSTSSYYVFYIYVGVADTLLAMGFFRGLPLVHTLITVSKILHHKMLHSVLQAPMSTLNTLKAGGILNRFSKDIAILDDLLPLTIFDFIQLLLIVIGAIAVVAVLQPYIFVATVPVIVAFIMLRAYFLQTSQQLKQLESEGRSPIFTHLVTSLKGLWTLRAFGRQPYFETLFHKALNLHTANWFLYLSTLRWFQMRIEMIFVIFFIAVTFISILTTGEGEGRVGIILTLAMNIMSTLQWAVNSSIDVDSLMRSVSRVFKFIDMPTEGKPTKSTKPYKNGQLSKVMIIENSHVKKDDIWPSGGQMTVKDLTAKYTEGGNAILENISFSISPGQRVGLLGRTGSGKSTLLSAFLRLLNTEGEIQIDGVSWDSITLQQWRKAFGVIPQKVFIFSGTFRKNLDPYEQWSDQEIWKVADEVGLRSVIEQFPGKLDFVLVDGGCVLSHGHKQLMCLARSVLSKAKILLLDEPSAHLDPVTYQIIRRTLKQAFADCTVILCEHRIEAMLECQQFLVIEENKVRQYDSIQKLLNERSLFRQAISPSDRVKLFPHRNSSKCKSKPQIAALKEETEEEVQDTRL

As for `CCOC(=O)c1c(Br)c2c(n1Cc1ccc(C)cc1)-c1[nH]c(=O)c(S(=O)(=O)c3ccccc3)cc1CC2` [PP008, Ethyl 7-(benzenesulfonyl)-3-bromo-1-[(4-methylphenyl)methyl]-8-oxo-4,5,8,9-tetrahydro-1H-pyrrolo[3,2-h]quinoline-2-carboxylate], the calcium-dependent chloride secretion result in assay [1] was “does not modify”. Moreover, the “effect of combination with VX-809 on F508del-CFTR current” value at F508del-CFTR is on record as “synergistic effect”.

These data come from patent publication US12410164B2, “Heterocyclic compounds and medical use thereof” (FONDAZIONE TELETHON, priority 2018, dated 2025).
